Columns and labels:
[1] = Photostability of thin films exposed to xenon arc lamp; format: physicochemical; conditions: for % λmax (% of original absorbance remaining): absorbance at λmax, irradiated vs unirradiated; for % λmax (% of original absorbance remaining) / % abs total (% of original absorbance remaining): xenon arc lamp 1 hour, thin film; for Photostability, % remaining after irradiation: exposure to the lamp for 1 h; for % abs total (% of original absorbance remaining): sum of absorbance 290-400 nm
Description: 1 mL of a 3% solution of the test compound (30 mg of test compound in 1 mL solvent) was prepared in a solvent mix made up of 50% EtOH and 25% capric/caprylic triglyceride and 25% C12-C15 alkyl benzoate. 50 μL of this solution (containing 1.5 mg of test compound) was added carefully to the centre of a glass microscope slide and the volatile components left to evaporate in the dark for at least 3 hours to give a liquid film. […] The irradiation was performed in a fume cupboard where the air flow was sufficient to keep sample T<30° C. One hour's exposure represented a calculated radiation dose (using meter) of approximately 100 MED.
In order to calculate the photostability of the test compounds, the exposed slides were placed in a beaker and rinsed with 2×5 mL EtOH, 1×5 mL MeOH. The combined washings were then added to a 100 mL volumetric flask and made up to 100 mL total volume with methanol. The UV absorbance was then measured in a 10 mm cuvette. The percent stability is measured as the ratio of absorbance at λmax for the irradiated sample compared to the unirradiated sample. As a further measure, a comparison of the sum of the absorbance in the 290-400 nm range was calculated.
The thin films are a good surrogate for testing the stability of a candidate in a sunscreen formulation as they use cosmetic emollients as solvent and are formed at cosmetically relevant concentrations.

[2] = UV/visible absorbance characteristics (λmax, λcrit, ε, E 1%,1 cm); format: physicochemical
[3] = Table 5, in M-1 cm-1 (unit assumed)

Row | Structure (SMILES) | E (1%, 1 cm) ([2]; Table 5) | λcrit ([2]; Table 5) | λmax ([2]; Table 5) | ε [2, 3] | % λmax (% of original absorbance remaining) [1] | % abs total (% of original absorbance remaining) [1] | further results
1 | CC(C)(C)CC(C)(C)N1C=C(C(=O)/C=C/c2ccc(/C=C/C(=O)C3=CN(C(C)(C)CC(C)(C)C)CCC3(C)C)cc2)C(C)(C)CC1 |  |  |  |  |  |  | Photostability (%) ([1]; Table 5): <5%
2 | Cc1cc(N2C=C(C(=O)C(F)(F)F)C(C)(C)CC2)ccc1N1C=C(C(=O)C(F)(F)F)C(C)(C)CC1 | 1170 | 369 nm | 347 nm | 58853 |  |  | 
3 | Cc1c(N2C=C(C(=O)C(F)(F)F)C(C)(C)CC2)cccc1N1C=C(C(=O)C(F)(F)F)C(C)(C)CC1 | 1495 | 346 nm | 326 nm | 75074 |  |  | 
4 | Cc1ccc(N2C=C(C(=O)C(F)(F)F)C(C)(C)CC2)cc1N1C=C(C(=O)C(F)(F)F)C(C)(C)CC1 | 1315 | 358 nm | 339 nm | 66020 |  |  | 
5 | COc1ccc(N2C=C(C(=O)C(F)(F)F)C(C)(C)CC2)cc1N1C=C(C(=O)C(F)(F)F)C(C)(C)CC1 | 1094 | 364 nm | 340 nm | 56720 |  |  | Photostability (%) ([1]; Table 5): 100%
6 | CC1(C)CCN(C(C)(C)C)C=C1C(=O)C(F)F | 1371 | 331 nm | 313 nm | 30868 |  |  | Photostability (%) ([1]; Table 5): 43%
7 | CC(F)(F)C(=O)C1=CN(C(C)(C)C)CCC1(C)C | 1285 | 331 nm | 314 nm | 33288 |  |  | Photostability (%) ([1]; Table 5): 49%
8 | CC1(C)CCN(C(C)(C)C)C=C1C(=O)CF | 1655 | 326 nm | 310 nm | 37586 |  |  | Photostability (%) ([1]; Table 5): 30%
9 | CCCCCCC(=O)C1=CN(c2ccc(N3C=C(C(=O)CCCCCC)C(C)(C)CC3)cc2)CCC1(C)C [1,1′-(1,4-phenylenebis(4,4-dimethyl-1,4,5,6-tetrahydropyridine-1,3-diyl))bis(heptan-1-one)] |  |  |  |  |  |  | UV λmax ([2]; synthesis section): 359 nm; ε ([2]; synthesis section): 70222 M⁻¹ cm⁻¹
10 | CCCCCCCC(=O)C1=CN(C(C)(C)C)CCC1(C)C [319, 2] |  |  |  |  | 45% | 47% | Photostability, % remaining after irradiation [1]: over 40%
11 | CC1(C)CCN(C(C)(C)C)C=C1C(=O)/C=C/c1ccc(/C=C/C(=O)C2=CN(C(C)(C)C)CCC2(C)C)cc1 [(2E,2′E)-3,3′-(1,4-phenylene)bis(1-(1-(tert-butyl)-4,4-dimethyl-1,4,5,6-tetrahydropyridin-3-yl)prop-2-en-1-one)] |  |  |  |  |  |  | UV λmax ([2]; synthesis section): 386 nm; ε ([2]; synthesis section): 36404 M⁻¹ cm⁻¹
12 | CC1(C)CCN(C(C)(C)C)C=C1C(=O)c1ccncc1 [Compound 58] |  |  |  |  |  |  | Photostability (%) ([1]; Table 7, benzoyl derivatives): 78%
13 | CC1(C)CCN(C(C)(C)C)C=C1C(=O)c1ccc(Br)cc1 [Compound 76] |  |  |  |  |  |  | Photostability (%) ([1]; Table 7, benzoyl derivatives): 85%

Second part, led by results:

Row | E (1%, 1 cm) ([2]; Table 5) | λcrit ([2]; Table 5) | λmax ([2]; Table 5) | ε [2, 3] | % λmax (% of original absorbance remaining) [1] | % abs total (% of original absorbance remaining) [1] | Structure (SMILES) | further results
14 |  |  |  |  | 21% | 24% | CCC(=O)C1=CN(CC(C)C)CCC1(C)C [Compound 1] | Photostability, % remaining after irradiation [1]: 21%
15 |  |  |  |  | 59% | 63% | CC(C)CN1C=C(C(=O)c2ccccc2)C(C)(C)CC1 [Compound 11] | Photostability (%) ([1]; Table 7, benzoyl derivatives): 59%; Photostability, % remaining after irradiation [1]: 59%
16 |  |  |  |  | 35% | 37% | CC(C)CN1C=C(C(=O)C(c2ccccc2)c2ccccc2)C(C)(C)CC1 [Compound 16] | 
17 |  |  |  |  | 30% | 31% | CCC(=O)C1=CN(c2ccccc2)CCC1(C)C [Compound 23] | 
18 |  |  |  |  | 56% | 56% | Br.CCC(=O)C1=CN(CC(C)C)CCC1(C)C [Compound 44] | Photostability, % remaining after irradiation [1]: 56%
19 |  |  |  |  | 63% | 61% | CC1(C)CCN(C(C)(C)C)C=C1C(=O)CCCCCCCCC(=O)C1=CN(C(C)(C)C)CCC1(C)C [Compound 54] | E (1%, 1 cm) ([2]; Table 6): 1197; ε ([2]; Table 6, in M-1 cm-1 (unit assumed)): 59850; Peak point of absorbance curve (figure legend) ([2]; unirradiated control, FIGS. 3-5): approximately 310 nm; Photostability (%) ([1]; Table 6): 63%
20 |  |  |  |  | 9% | 14% | CN(C(=O)C1=CN(C(C)(C)C)CCC1(C)C)c1ccccc1 [Compound 70] | 

From US10315994B2, “Photostable compounds, absorbing compounds and uses thereof” (Commonwealth Scientific and Industrial Research Organisation, priority 2015, dated 2019)
